# Key:
# Experiment in all cases: SILAC MS mapping of lipid probe targets (probe-versus-No UV, probe-versus-probe) in Neuro2a cells
# [1] = target: T1, lipid-binding proteins in Neuro2a cells (Mus musculus, UniProt Q505D7); format: cell-based; conditions: AEA-DA probe vs NoUV
# T1 construct: endogenous in cells; host or cells: Neuro2a
# [2] = target: T2, lipid-binding proteins in Neuro2a cells (Mus musculus, UniProt Q91V01); format: cell-based; conditions: AEA-DA probe vs NoUV
# T2 construct: endogenous in cells; host or cells: Neuro2a
# [3] = target: T3, lipid-binding proteins in Neuro2a cells (Mus musculus, UniProt Q9CQ85); format: cell-based; conditions: AEA-DA probe vs NoUV
# T3 construct: endogenous in cells; host or cells: Neuro2a
# [4] = target: T4, lipid-binding proteins in Neuro2a cells (Mus musculus, UniProt Q8BIJ6); format: cell-based; conditions: protein Iars2, AEA-DA probe, No UV control
# T4 construct: endogenous in cells; host or cells: Neuro2a
# [5] = target: T5, lipid-binding proteins in Neuro2a cells (Mus musculus, UniProt Q99KJ8); format: cell-based; conditions: protein Dctn2, AEA-DA probe, No UV control
# T5 construct: endogenous in cells; host or cells: Neuro2a
# [6] = target: T6, lipid-binding proteins in Neuro2a cells (Mus musculus, UniProt Q9R1J0); format: cell-based; conditions: AEA-DA probe vs NoUV
# T6 construct: endogenous in cells; host or cells: Neuro2a
# [7] = target: T7, lipid-binding proteins in Neuro2a cells (Mus musculus, UniProt Q8BHC4); format: cell-based; conditions: AEA-DA probe vs NoUV
# T7 construct: endogenous in cells; host or cells: Neuro2a
# [8] = target: T8, lipid-binding proteins in Neuro2a cells (Mus musculus, UniProt O70252); format: cell-based; conditions: AEA-DA probe vs NoUV
# T8 construct: endogenous in cells; host or cells: Neuro2a
# [9] = target: T9, lipid-binding proteins in Neuro2a cells (Mus musculus, UniProt Q62465); format: cell-based; conditions: AEA-DA probe vs NoUV
# T9 construct: endogenous in cells; host or cells: Neuro2a
# [10] = target: T10, lipid-binding proteins in Neuro2a cells (Mus musculus, UniProt Q3KNM2); format: cell-based; conditions: AEA-DA probe vs NoUV
# T10 construct: endogenous in cells; host or cells: Neuro2a
# [11] = target: T11, lipid-binding proteins in Neuro2a cells (Mus musculus, UniProt P97300); format: cell-based; conditions: AEA-DA probe vs NoUV
# T11 construct: endogenous in cells; host or cells: Neuro2a
# [12] = target: T12, lipid-binding proteins in Neuro2a cells (Mus musculus, UniProt O08579); format: cell-based; conditions: AEA-DA probe vs NoUV
# T12 construct: endogenous in cells; host or cells: Neuro2a
# [13] = target: T13, lipid-binding proteins in Neuro2a cells (Mus musculus, UniProt Q9Z0R9); format: cell-based; conditions: AEA-DA probe vs NoUV
# T13 construct: endogenous in cells; host or cells: Neuro2a
# [14] = target: T14, lipid-binding proteins in Neuro2a cells (Mus musculus, UniProt Q8R2Y0); format: cell-based; conditions: AEA-DA probe vs NoUV
# T14 construct: endogenous in cells; host or cells: Neuro2a
# [15] = target: T15, lipid-binding proteins in Neuro2a cells (Mus musculus, UniProt Q8R0X7); format: cell-based; conditions: AEA-DA probe vs NoUV
# T15 construct: endogenous in cells; host or cells: Neuro2a
# [16] = target: T16, lipid-binding proteins in Neuro2a cells (Mus musculus, UniProt Q60932); format: cell-based; conditions: AEA-DA probe vs NoUV
# T16 construct: endogenous in cells; host or cells: Neuro2a
# [17] = target: T17, lipid-binding proteins in Neuro2a cells (Mus musculus, UniProt O70503); format: cell-based; conditions: AEA-DA probe vs NoUV
# T17 construct: endogenous in cells; host or cells: Neuro2a
# [18] = target: T18, lipid-binding proteins in Neuro2a cells (Mus musculus, UniProt Q78IK4); format: cell-based; conditions: protein Apool, AEA-DA probe, No UV control
# T18 construct: endogenous in cells; host or cells: Neuro2a
# [19] = target: T19, lipid-binding proteins in Neuro2a cells (Mus musculus, UniProt Q9CPQ3); format: cell-based; conditions: AEA-DA probe vs NoUV
# T19 construct: endogenous in cells; host or cells: Neuro2a
# [20] = target: T20, lipid-binding proteins in Neuro2a cells (Mus musculus, UniProt P52019); format: cell-based; conditions: AEA-DA probe vs NoUV
# T20 construct: endogenous in cells; host or cells: Neuro2a
# [21] = system: lipid-binding proteins in Neuro2a cells; format: cell-based, mouse; conditions: AEA-DA probe vs NoUV
# [22] = target: T21, lipid-binding proteins in Neuro2a cells (Mus musculus, UniProt Q3UV70); format: cell-based; conditions: protein Pdp1, AEA-DA probe, No UV control
# T21 construct: endogenous in cells; host or cells: Neuro2a
# [23] = target: T22, lipid-binding proteins in Neuro2a cells (Mus musculus, UniProt Q61207); format: cell-based; conditions: AEA-DA probe vs NoUV
# T22 construct: endogenous in cells; host or cells: Neuro2a
# [24] = target: T23, lipid-binding proteins in Neuro2a cells (Mus musculus, UniProt Q80UU9); format: cell-based; conditions: AEA-DA probe vs NoUV
# T23 construct: endogenous in cells; host or cells: Neuro2a
# T23 sequence (Q80UU9 whole entry): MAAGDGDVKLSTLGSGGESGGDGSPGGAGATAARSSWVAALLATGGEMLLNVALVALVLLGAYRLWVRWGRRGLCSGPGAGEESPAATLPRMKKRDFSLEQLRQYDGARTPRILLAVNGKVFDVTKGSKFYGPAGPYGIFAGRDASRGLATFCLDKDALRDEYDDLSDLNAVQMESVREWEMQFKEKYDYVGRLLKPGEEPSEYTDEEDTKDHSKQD
# T3 sequence (Q9CQ85 whole entry): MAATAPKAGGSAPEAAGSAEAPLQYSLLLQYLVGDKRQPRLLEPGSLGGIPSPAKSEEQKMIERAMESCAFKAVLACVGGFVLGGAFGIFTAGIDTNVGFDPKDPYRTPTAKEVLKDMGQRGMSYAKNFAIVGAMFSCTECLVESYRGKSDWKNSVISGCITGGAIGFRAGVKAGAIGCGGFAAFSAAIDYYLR
# T6 sequence (Q9R1J0 whole entry): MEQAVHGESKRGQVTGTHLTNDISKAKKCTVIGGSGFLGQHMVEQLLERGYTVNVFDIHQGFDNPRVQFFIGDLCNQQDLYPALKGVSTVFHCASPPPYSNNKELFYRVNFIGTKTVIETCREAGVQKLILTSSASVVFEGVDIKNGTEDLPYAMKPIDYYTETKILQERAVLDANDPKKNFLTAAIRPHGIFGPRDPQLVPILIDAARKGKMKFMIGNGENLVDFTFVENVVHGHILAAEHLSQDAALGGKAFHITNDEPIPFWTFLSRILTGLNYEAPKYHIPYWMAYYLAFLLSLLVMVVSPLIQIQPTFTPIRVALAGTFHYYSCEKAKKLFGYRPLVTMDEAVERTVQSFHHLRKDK
# T18 sequence (Q78IK4 28-265): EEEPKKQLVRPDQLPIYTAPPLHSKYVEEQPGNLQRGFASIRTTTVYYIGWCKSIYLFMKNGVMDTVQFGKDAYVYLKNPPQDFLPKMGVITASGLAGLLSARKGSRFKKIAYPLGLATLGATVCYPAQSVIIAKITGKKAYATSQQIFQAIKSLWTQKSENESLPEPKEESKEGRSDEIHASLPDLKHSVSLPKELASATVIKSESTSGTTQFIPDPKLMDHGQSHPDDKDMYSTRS
# T21 sequence (Q3UV70 72-538): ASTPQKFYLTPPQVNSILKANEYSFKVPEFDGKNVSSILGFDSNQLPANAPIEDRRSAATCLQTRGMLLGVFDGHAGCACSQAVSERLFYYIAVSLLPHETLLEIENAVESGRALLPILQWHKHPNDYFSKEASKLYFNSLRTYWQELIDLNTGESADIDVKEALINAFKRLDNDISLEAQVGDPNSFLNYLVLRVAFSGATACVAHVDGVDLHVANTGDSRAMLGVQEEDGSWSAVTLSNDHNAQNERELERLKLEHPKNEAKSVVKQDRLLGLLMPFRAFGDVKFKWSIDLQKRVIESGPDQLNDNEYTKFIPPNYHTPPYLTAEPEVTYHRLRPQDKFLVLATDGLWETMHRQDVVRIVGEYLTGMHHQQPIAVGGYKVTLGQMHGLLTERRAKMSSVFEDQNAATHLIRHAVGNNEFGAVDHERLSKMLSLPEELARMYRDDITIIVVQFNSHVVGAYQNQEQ
# T17 sequence (O70503 whole entry): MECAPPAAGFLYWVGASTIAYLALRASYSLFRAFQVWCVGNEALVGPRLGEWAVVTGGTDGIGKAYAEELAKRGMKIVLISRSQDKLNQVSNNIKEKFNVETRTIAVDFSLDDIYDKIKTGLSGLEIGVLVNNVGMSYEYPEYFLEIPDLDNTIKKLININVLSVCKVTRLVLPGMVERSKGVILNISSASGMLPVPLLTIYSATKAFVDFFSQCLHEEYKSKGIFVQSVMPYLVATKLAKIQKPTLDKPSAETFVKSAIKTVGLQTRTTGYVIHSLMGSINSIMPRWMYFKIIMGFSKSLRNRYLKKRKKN
# T5 sequence (Q99KJ8 whole entry): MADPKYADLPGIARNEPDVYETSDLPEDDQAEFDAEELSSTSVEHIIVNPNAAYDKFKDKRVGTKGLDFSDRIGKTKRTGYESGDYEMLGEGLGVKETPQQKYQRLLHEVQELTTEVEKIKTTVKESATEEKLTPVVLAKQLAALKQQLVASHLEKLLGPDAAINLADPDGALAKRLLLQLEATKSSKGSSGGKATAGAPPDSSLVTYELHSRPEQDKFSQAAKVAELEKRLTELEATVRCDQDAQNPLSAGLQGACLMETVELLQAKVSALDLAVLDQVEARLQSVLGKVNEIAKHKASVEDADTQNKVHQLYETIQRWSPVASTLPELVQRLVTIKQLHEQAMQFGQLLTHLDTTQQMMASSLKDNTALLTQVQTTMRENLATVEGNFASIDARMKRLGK
# T8 sequence (O70252 whole entry): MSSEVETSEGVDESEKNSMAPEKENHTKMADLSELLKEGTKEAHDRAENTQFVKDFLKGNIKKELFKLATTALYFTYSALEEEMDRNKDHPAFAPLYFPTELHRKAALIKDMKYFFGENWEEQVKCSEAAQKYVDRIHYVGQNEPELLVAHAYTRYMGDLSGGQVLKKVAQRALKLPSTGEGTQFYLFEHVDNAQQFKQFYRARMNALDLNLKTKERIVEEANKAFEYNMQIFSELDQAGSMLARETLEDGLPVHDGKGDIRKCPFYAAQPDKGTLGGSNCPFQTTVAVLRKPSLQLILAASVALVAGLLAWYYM
# T9 sequence (Q62465 whole entry): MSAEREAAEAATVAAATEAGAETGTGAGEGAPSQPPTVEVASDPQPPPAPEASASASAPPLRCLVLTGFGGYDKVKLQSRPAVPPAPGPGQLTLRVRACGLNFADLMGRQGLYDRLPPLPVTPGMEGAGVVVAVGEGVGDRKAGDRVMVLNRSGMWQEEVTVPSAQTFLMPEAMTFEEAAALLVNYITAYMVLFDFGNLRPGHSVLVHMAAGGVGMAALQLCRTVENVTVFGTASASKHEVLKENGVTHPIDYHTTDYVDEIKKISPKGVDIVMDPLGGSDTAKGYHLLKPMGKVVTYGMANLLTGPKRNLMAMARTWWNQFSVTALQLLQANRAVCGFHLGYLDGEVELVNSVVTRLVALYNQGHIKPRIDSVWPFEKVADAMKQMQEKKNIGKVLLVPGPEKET
# T12 sequence (O08579 whole entry): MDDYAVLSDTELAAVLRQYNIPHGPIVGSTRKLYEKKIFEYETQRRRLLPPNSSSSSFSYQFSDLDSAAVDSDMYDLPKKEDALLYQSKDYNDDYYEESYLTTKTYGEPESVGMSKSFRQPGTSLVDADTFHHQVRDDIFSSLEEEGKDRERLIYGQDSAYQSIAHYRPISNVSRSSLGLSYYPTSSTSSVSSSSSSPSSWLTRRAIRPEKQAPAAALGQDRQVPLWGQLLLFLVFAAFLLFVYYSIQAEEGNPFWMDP
# T10 sequence (Q3KNM2 whole entry): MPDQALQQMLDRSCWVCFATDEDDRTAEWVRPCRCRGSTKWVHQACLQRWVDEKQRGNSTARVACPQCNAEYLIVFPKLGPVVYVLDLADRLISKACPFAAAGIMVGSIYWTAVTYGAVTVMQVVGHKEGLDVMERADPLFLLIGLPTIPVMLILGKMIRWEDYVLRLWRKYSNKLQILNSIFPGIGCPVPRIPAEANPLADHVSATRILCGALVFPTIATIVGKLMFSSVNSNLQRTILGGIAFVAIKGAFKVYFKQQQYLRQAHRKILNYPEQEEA
# T11 sequence (P97300 29-397): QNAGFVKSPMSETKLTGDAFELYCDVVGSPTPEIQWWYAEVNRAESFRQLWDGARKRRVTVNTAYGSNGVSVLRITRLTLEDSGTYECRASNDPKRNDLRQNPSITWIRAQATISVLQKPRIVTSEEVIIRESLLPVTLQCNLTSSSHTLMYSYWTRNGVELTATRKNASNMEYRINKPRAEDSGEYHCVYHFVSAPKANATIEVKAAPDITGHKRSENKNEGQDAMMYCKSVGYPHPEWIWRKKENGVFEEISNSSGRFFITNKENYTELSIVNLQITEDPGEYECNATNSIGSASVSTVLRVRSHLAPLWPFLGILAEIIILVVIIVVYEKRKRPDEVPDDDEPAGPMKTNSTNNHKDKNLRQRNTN
# T16 sequence (Q60932 whole entry): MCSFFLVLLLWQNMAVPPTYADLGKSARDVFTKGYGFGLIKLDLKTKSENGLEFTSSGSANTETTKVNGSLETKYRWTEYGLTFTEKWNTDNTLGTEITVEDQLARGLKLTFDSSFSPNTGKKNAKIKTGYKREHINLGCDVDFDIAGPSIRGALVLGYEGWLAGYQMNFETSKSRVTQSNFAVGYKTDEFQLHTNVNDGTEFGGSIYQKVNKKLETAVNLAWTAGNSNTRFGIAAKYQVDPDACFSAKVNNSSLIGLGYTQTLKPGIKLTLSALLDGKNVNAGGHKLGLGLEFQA
# T15 sequence (Q8R0X7 whole entry): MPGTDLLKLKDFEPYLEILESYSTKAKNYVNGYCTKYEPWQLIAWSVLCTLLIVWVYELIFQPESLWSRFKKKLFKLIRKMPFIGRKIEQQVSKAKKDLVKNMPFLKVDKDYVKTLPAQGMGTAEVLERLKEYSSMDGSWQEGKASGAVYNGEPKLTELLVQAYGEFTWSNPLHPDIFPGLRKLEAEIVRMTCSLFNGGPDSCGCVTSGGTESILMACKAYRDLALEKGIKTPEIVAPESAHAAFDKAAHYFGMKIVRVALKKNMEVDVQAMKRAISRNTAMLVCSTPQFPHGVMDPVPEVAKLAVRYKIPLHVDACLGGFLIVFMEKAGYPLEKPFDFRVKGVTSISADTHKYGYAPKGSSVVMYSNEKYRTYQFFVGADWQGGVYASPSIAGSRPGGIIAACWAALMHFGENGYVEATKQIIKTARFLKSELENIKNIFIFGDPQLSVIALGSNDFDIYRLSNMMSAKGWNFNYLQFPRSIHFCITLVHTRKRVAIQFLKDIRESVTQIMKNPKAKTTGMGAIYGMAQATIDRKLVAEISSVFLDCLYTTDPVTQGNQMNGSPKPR
# T19 sequence (Q9CPQ3 whole entry): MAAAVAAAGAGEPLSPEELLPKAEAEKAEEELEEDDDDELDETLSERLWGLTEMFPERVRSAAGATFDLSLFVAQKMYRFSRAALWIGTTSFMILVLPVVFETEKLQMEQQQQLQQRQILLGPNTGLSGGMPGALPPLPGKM
smiles,measurement,setting,value
"C#CCCCC1(CC/C=C\C/C=C\C/C=C\CCCC(=O)NCCO)N=N1 [AEA-DA, (5Z,8Z,11Z)-N-(2-hydroxyethyl)-14-(3-(pent-4-yn-1-yl)-3H-diazirin-3-yl)tetradeca-5,8,11-trienamide]","SILAC ratio, OPA3 (Q505D7)",[1],20.0
same,"SILAC ratio, LPCAT3 (Q6P1A2)",[2],18.7
same,"SILAC ratio, TIMM22 (Q9CQ85)",[3],13.6
same,"SILAC ratio, AEA-DA probe versus No UV",[4],20.0
same,"SILAC ratio, AEA-DA probe versus No UV",[5],11.6
same,"SILAC ratio, NSDHL (Q15738)",[6],9.4
same,"SILAC ratio, DCAKD (Q8BHC4)",[7],9.0
same,"SILAC ratio, HMOX2 (P30519)",[8],4.0
same,"SILAC ratio, VAT1 (Q99536)",[9],4.4
same,"SILAC ratio, MARCH5 (Q3KNM2)",[10],20.0
same,"SILAC ratio, NPTN (Q9Y639)",[11],17.4
same,"SILAC ratio, EMD (O08579)",[12],20.0
same,"SILAC ratio, FADS2 (Q9Z0R9)",[13],10.5
same,"SILAC ratio, ABHD6 (Q8R2Y0)",[14],20.0
same,"SILAC ratio, SGPL1 (O95470)",[15],20.0
same,"SILAC ratio, VDAC1 (P21796)",[16],20.0
same,"SILAC ratio, HSD17B12 (Q53GQ0)",[17],15.3
same,"SILAC ratio, AEA-DA probe versus No UV",[18],6.4
same,"SILAC ratio, TOMM22 (Q9CPQ3)",[19],20.0
same,"SILAC ratio, SQLE (Q14534)",[20],5.0
same,"SILAC ratio, GM20425 (E9Q035)",[21],16.5
same,"SILAC ratio, AEA-DA probe versus No UV",[22],20.0
same,"SILAC ratio, PSAP (P07602)",[23],20.0
same,"SILAC ratio, PGRMC2 (Q80UU9)",[24],16.3

# — patent US10168342B2, “Lipid probes and uses thereof” (THE SCRIPPS RESEARCH INSTITUTE, priority 2015, dated 2019)
